# Measured values taken from patent US20250171434A1, “SEC61 INHIBITORS AND USE THEREOF” (KEZAR LIFE SCIENCES, INC., priority 2022, published 2025).
# pEC50, pIC50: −log10 of the molar value.
# Tests used:
# [1] = tested on: PD1-ss+10aa/Gaussia Luciferase; assay: Dox-Induced PD1-ss-Gluc Assay; format: cell-based; settings: Flp-In 293 T-REx cells, 24 hours with doxycycline; Table 1; read-out: 24 hr Dox Inducible PD1ssGluc 293FRT/TO: Mean IC50
# Text: Flp-In 293 T-REx™ cells were transfected with pcDNA™5/FRT/TO plasmid inserted with cDNA encoding Gaussia Luciferase fused to the 3′ end of cDNA encoding PD1 signal sequence plus 10 amino acids (N-[…]-C) (SEQ ID NO: 1). Transfected cells were selected for resistance to the selectable markers Hygromycin and Blasticidin to create a stable cell line that contained the PD1-ss+10aa/Gaussia Luciferase cDNA insert whose expression was regulated under the T-REx™ system. The day before assay, cells were trypsinized and plated in 384-well tissue culture plates. The next day, compound dilutions in DMSO/media containing doxycycline were added to the wells and incubated at 37° C., 5% CO2.
# (§1) For chemical structures that include one or more stereoisomers, but are illustrated without indicating stereochemistry, the assay data refers to a mixture of stereoisomers.
# [2] = tested on: IL-2-FL/Gaussia Luciferase; assay: Dox Inducible IL2-FL-Gluc Assay; format: cell-based; settings: Table 1; for pIC50: Flp-In 293 T-REx cells, 24 hours with doxycycline, read-out: 24 hr Dox Inducible IL2FLGluc 293FRT/TO: Mean IC50; for 24 hr Dox Inducible IL2FLGluc 293FRT/TO: IL2/PD1: ratio of IC50s IL2/PD1
# Text: Flp-In 293 T-REx™ cells were transfected with pcDNA™5/FRT/TO plasmid inserted with cDNA encoding Gaussia Luciferase fused to the 3′ end of cDNA encoding full length IL-2 (amino acids 1-153). Transfected cells were selected for resistance to the selectable markers Hygromycin and Blasticidin to create a stable cell line that contained the IL-2-FL/Gaussia Luciferase cDNA insert whose expression was regulated under the T-REx™ system. The day before assay, cells were trypsinized and plated in 384-well tissue culture plates. The next day, compound dilutions in DMSO/media containing doxycycline were added to the wells and incubated at 37° C., 5% CO2.
# as §1
# CD47(ss + 10)Gluc = assay: Dox-Induced CD47-ss-Gluc Assay; format: cell-based; settings: Flp-In 293 T-REx cells, 24 hours with doxycycline; Table 1; read-out: 24 hr Dox Inducible CD47(ss + 10)Gluc 293FRT/TO: Mean IC50
# [3] = tested on: IL6R-ss+10aa/Gaussia Luciferase; assay: Dox-induced IL-6R-ss-Gluc Assay; format: cell-based; settings: Table 1; for pIC50: Flp-In 293 T-REx cells, 24 hours with doxycycline, read-out: 24hr Dox Inducible IL6R(ss + 10)Gluc 293FRT/TO: Mean IC50; for 24hr Dox Inducible IL6R(ss + 10)Gluc 293FRT/TO: IL6R/PD1: ratio of IC50s IL6R/PD1
# Text: Flp-In 293 T-REx™ cells were transfected with pcDNATM5/FRT/TO plasmid inserted with cDNA encoding Gaussia Luciferase fused to the 3′ end of cDNA encoding IL6R signal sequence plus 10 amino acids (N-[…]-C). Transfected cells were selected for resistance to the selectable markers Hygromycin and Blasticidin to create a stable cell line that contained the IL6R-ss+10aa/Gaussia Luciferase cDNA insert whose expression was regulated under the T-REx™ system. The day before assay, cells were trypsinized and plated in 384-well tissue culture plates. The next day, compound dilutions in DMSO/media containing doxycycline were added to the wells and incubated at 37° C., 5% CO2.
# as §1
# [4] = tested on: multiple myeloma cell line NCI-H929; assay: H929 Cell Viability Assay; format: cell-based, human; settings: Homo sapiens; NCI-H929 cells, 48 hours, Celltiter-Glo; read-out: 48 hr H929 Viability Celltiter-Glo: Mean EC50
# Procedure: The human multiple myeloma cell line NCI-H929 was cultured in Advanced RPMI 1640 media (Gibco®) supplemented with 6% fetal bovine serum, 2 mM Glutamine, and 1× Penicillin/Streptomycin. On the day of assay, cells were resuspended in RPMI 1640 media supplemented with 10% fetal bovine serum, 2 mM Glutamine, and 1× Penicillin/Streptomycin and plated in 384-well tissue culture plates and treated with compound dilutions in DMSO/media. Plates were incubated at 37° C., 5% CO2 for 48 hours. After 48 hours, Celltiter-Glo® (Promega) was added to each well and luciferase signal was quantified using Tecan Infinite M1000 Pro for cell viability determination.
# as §1
# [5] = tested on: multiple myeloma cell line U266B1; assay: U266 Cell Viability Assay; format: cell-based; settings: Homo sapiens, U-266; U266B1 cells, 48 hours, Celltiter-Glo; read-out: 48 hr U266 Viability Celltiter-Glo: Mean EC50
# Procedure: The human multiple myeloma cell line U266B1 was cultured in RPMI 1640 media supplemented with 10% fetal bovine serum, 2 mM Glutamine, and 1× Penicillin/Streptomycin. Cells were plated in 384-well tissue culture plates and treated with compound dilutions in DMSO/media. Plates were incubated at 37° C., 5% CO2 for 48 hours. After 48 hours, Celltiter-Glo® (Promega) was added to each well and luciferase signal was quantified using Tecan Infinite M1000 Pro for cell viability determination.
# as §1
# [6] = Liver Microsome Stability Assay, mouse; format: in vitro ADME; settings: mouse liver microsomes 1.0 mg/mL, 1.0 uM compound, 37° C., 1 mM NADPH
# Procedure: (§2) Stability of a compound was assessed in the presence of liver microsomes from various sources—mouse, rat, monkey and human liver microsomes. 1.0 uM compound, 0.4% DMSO in 0.1 M Potassium Phosphate with 1.0 mg/mL liver microsomes, were incubated at 37° C. with or without 1 mM NADPH. The samples were quenched at 0, and 30 minutes.
# [7] = Liver Microsome Stability Assay, rat; format: in vitro ADME; settings: rat liver microsomes 1.0 mg/mL, 1.0 uM compound, 37° C., 1 mM NADPH
# Procedure: as §2
# [8] = Liver Microsome Stability Assay, monkey; format: in vitro ADME; settings: monkey liver microsomes 1.0 mg/mL, 1.0 uM compound, 37° C., 1 mM NADPH
# Procedure: as §2
# [9] = Liver Microsome Stability Assay, human; format: in vitro ADME; settings: human liver microsomes 1.0 mg/mL, 1.0 uM compound, 37° C., 1 mM NADPH
# Procedure: as §2
pIC50 [1],pIC50 [2],pIC50 (CD47(ss + 10)Gluc),pIC50 [3],pEC50 [4],pEC50 [5],Liver Microsome Stability (Multiple Species): Mouse - % Remaining after 30 min w/ NADPH (%) [6] [%],Liver Microsome Stability (Multiple Species): Rat - % Remaining after 30 min w/ NADPH (%) [7] [%],Liver Microsome Stability (Multiple Species): Monkey - % Remaining after 30 min w/ NADPH (%) [8] [%],Liver Microsome Stability (Multiple Species): Human - % Remaining after 30 min w/ NADPH (%) [9] [%],Structure (SMILES),24 hr Dox Inducible IL2FLGluc 293FRT/TO: IL2/PD1 [2],24hr Dox Inducible IL6R(ss + 10)Gluc 293FRT/TO: IL6R/PD1 [3]
8.15,5.67,5.62,5.66,< 4.60,< 4.60,44,<1,70,63,"O=C(Nc1nc(/C=C/c2ncn(C3CC3)c2Cl)cs1)c1cc(C(F)(F)F)cn1Cc1ccnc(F)c1 [Compound A30, (E)-N-(4-(2-(5-chloro-1-cyclopropyl-1H-imidazol-4-yl)vinyl)thiazol-2-yl)-1-((2-fluoropyridin-4-yl)methyl)-4-(trifluoromethyl)-1H-pyrrole-2-carboxamide]",290.0,292
4.73,4.85,< 4.60,< 4.60,4.61,< 4.60,54,32,3,1,"CN[C@H]1CC[C@@H](/C=C/c2csc(NC(=O)c3cccn3Cc3ccncc3)n2)CC1 [Compound B11, N-(4-((E)-2-((1s,4s)-4-(methylamino)cyclohexyl)vinyl)thiazol-2-yl)-1-(pyridin-4-ylmethyl)-1H-pyrrole-2-carboxamide]",0.8,>1.3
6.50,< 4.60,< 4.60,< 4.60,< 4.60,< 4.60,22,1,6,7,"N#Cc1ocnc1/C=C/c1csc(NC(=O)c2cccn2Cc2ccnc(F)c2)n1 [Compound B19, (E)-N-(4-(2-(5-cyanooxazol-4-yl)vinyl)thiazol-2-yl)-1-((2-fluoropyridin-4-yl)methyl)-1H-pyrrole-2-carboxamide]",>79,>79
5.96,< 4.60,< 4.60,< 4.60,< 4.60,< 4.60,0.2,<1,<1,<1,"Cc1nc(/C=C/c2csc(NC(=O)c3cccn3Cc3ccnc(F)c3)n2)ccc1C#N [Compound B14, (E)-N-(4-(2-(5-cyano-6-methylpyridin-2-yl)vinyl)thiazol-2-yl)-1-((2-fluoropyridin-4-yl)methyl)-1H-pyrrole-2-carboxamide]",>23,>23
8.00,5.44,5.36,5.54,< 4.60,< 4.60,65,23,51,4,"O=C(Nc1nc(/C=C/c2ncn(C3CC3)c2Cl)cs1)c1cc(OCF)cn1Cc1ccnc(F)c1 [Compound A19, (E)-N-(4-(2-(5-chloro-1-cyclopropyl-1H-imidazol-4-yl)vinyl)thiazol-2-yl)-4-(fluoromethoxy)-1-((2-fluoropyridin-4-yl)methyl)-1H-pyrrole-2-carboxamide]",360,287
7.62,5.38,5.42,5.49,< 4.60,< 4.60,68,72,35,15,"COc1cc(C(=O)Nc2nc(/C=C/c3ncn(C(C)C)c3Cl)cs2)n(Cc2ccnc(F)c2)c1 [Compound A2, (E)-N-(4-(2-(5-chloro-1-isopropyl-1H-imidazol-4-yl)vinyl)thiazol-2-yl)-1-((2-fluoropyridin-4-yl)methyl)-4-methoxy-1H-pyrrole-2-carboxamide]",170,133
4.93,< 4.60,< 4.60,< 4.60,< 4.60,< 4.60,2,1,<1,<1,"CC(=O)N[C@H]1CC[C@@H](/C=C/c2csc(NC(=O)c3cccn3Cc3ccncc3)n2)CC1 [Compound B15, N-(4-((E)-2-((1s,4s)-4-acetamidocyclohexyl)vinyl)thiazol-2-yl)-1-(pyridin-4-ylmethyl)-1H-pyrrole-2-carboxamide]",>2.1,>2
